From ChEMBL document CHEMBL1201862, “PubChem BioAssay data set” (2004)
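In this assay, cells in 96-well plates receive the compound at five concentrations for 48 hours. Endpoints are linearly interpolated between the surrounding concentrations. GI50 = concentration required for 50% inhibition of growth.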 Active and inactive are the calls of the source. Cut-off read from the data, not from the text of the source: active = GI50 up to about 1.1 µM and inactive = higher.

Columns and labels:
Test in all cases: NCI tumour cell line growth inhibition, 48 h
786-0 = tested on: 786-0
CCRF-CEM = tested on: CCRF-CEM
HCT-15 = tested on: HCT-15
HOP-62 = tested on: HOP-62
HOP-92 = tested on: HOP-92
K562 = tested on: K562
KM-20L2 = tested on: KM-20L2
Malme-3M = tested on: Malme-3M
OVCAR-5 = tested on: OVCAR-5
RPMI-8226 = tested on: RPMI-8226
RXF 393 = tested on: RXF 393
SK-MEL-28 = tested on: SK-MEL-28
SR = tested on: SR
TK-10 = tested on: TK-10
CAKI-1 = tested on: CAKI-1
NCI-H522 = tested on: NCI-H522
OVCAR-4 = tested on: OVCAR-4
BT-549 = tested on: BT-549
Hs-578T = tested on: Hs-578T
T47D = tested on: T47D

Compound	GI50 (786-0)	GI50 (CCRF-CEM)	GI50 (HCT-15)	GI50 (HOP-62)	GI50 (HOP-92)	GI50 (K562)	GI50 (KM-20L2)	GI50 (Malme-3M)	GI50 (OVCAR-5)	GI50 (RPMI-8226)	GI50 (RXF 393)	GI50 (SK-MEL-28)	GI50 (SR)	GI50 (TK-10)	GI50 (CAKI-1)	GI50 (NCI-H522)	GI50 (OVCAR-4)	GI50 (BT-549)	GI50 (Hs-578T)	GI50 (T47D)
COc1ccc(CNc2nc3ccccc3nc2-c2cccs2)cc1OC	33.5 µM (inactive)	33.3 µM (inactive)	34.8 µM	> 100 µM (inactive)	13.4 µM (inactive)	59.4 µM (inactive)	68.4 µM (inactive)	45.1 µM (inactive)	> 100 µM (inactive)	72.3 µM (inactive)	41.9 µM (inactive)	84.5 µM (inactive)	15.5 µM (inactive)	74 µM (inactive)						
Cn1c(N)c(-c2c3ccccc3nc3ccccc23)c(=O)n(C)c1=O	> 100 µM (inactive)	> 100 µM (inactive)	> 100 µM		> 100 µM (inactive)	> 100 µM (inactive)	> 100 µM (inactive)	> 100 µM (inactive)	> 100 µM (inactive)	> 100 µM (inactive)	> 100 µM (inactive)	> 100 µM (inactive)		> 100 µM (inactive)	> 100 µM (inactive)	> 100 µM (inactive)	> 100 µM (inactive)			
Cc1ccc(S(=O)(=O)n2cc(/C=C/C#N)c(/C=C/C#N)c2)cc1	> 100 µM (inactive)	43.8 µM (inactive)	88.9 µM	> 100 µM (inactive)	24.8 µM (inactive)	34 µM (inactive)	93.3 µM (inactive)	> 100 µM (inactive)	> 100 µM (inactive)	> 100 µM (inactive)	33.7 µM (inactive)	> 100 µM (inactive)		> 100 µM (inactive)		> 10 µM (inactive)	59.4 µM (inactive)			
O=C(C/C(CCC(=O)N(Cc1ccccc1)Cc1ccccc1)=N/Nc1ccc([N+](=O)[O-])cc1[N+](=O)[O-])c1ccccc1	> 100 µM (inactive)	35.9 µM (inactive)	40.5 µM	70.8 µM (inactive)	> 100 µM (inactive)	28.1 µM (inactive)	33.3 µM (inactive)	> 100 µM (inactive)	> 100 µM (inactive)	81.1 µM (inactive)		> 100 µM (inactive)		> 100 µM (inactive)		> 100 µM (inactive)	60.8 µM (inactive)			
O=C(CCc1nnc2s/c(=C\c3ccc([N+](=O)[O-])cc3)c(=O)n12)Nc1ccc(Cl)c(Cl)c1	17.9 µM (inactive)	20.2 µM (inactive)	24.7 µM	20.3 µM (inactive)	38.6 µM (inactive)	20.3 µM (inactive)	47.9 µM (inactive)	29.4 µM (inactive)	36.2 µM (inactive)	20.6 µM (inactive)	18.2 µM (inactive)	21.8 µM (inactive)		34 µM (inactive)	41.9 µM (inactive)	17.3 µM (inactive)	18.6 µM (inactive)			
C#CCN(C)C(=O)N(CC#C)N=O	> 100 µM (inactive)	> 100 µM (inactive)	> 100 µM	> 100 µM (inactive)	> 100 µM (inactive)	> 100 µM (inactive)	> 100 µM (inactive)	> 100 µM (inactive)	29.5 µM (inactive)	> 100 µM (inactive)	> 100 µM (inactive)	> 100 µM (inactive)		> 100 µM (inactive)		> 100 µM (inactive)	> 100 µM (inactive)			
N#CC(/C(=N/NC(=O)C(=O)NN)C(=O)Nc1nc([N+](=O)[O-])cs1)c1ccc(Cl)cc1 (configuration not stated)	> 100 µM (inactive)	89.5 µM (inactive)		> 100 µM (inactive)	> 100 µM (inactive)		> 100 µM (inactive)	> 100 µM (inactive)	> 100 µM (inactive)	> 100 µM (inactive)	> 100 µM (inactive)	> 100 µM (inactive)		> 100 µM (inactive)			> 100 µM (inactive)			
Oc1ccc(O)c(-n2cccn2)c1	62.1 µM (inactive)	20.6 µM (inactive)	> 100 µM	> 100 µM (inactive)	45.9 µM (inactive)	24.2 µM (inactive)	> 100 µM (inactive)	> 100 µM (inactive)	88.9 µM (inactive)	25.6 µM (inactive)	38.1 µM (inactive)	> 100 µM (inactive)		32.1 µM (inactive)	19.1 µM (inactive)	16.6 µM (inactive)	> 100 µM (inactive)			
CCOC(=O)C(=O)Nc1nc2c(OCC)cccc2s1	> 100 µM (inactive)		> 100 µM	> 100 µM (inactive)	> 100 µM (inactive)	> 100 µM (inactive)	> 100 µM (inactive)	> 100 µM (inactive)	> 100 µM (inactive)	> 100 µM (inactive)	> 100 µM (inactive)	> 100 µM (inactive)		> 100 µM (inactive)	> 100 µM (inactive)	> 100 µM (inactive)	> 100 µM (inactive)			
O=C(Nc1cccc(NC(=O)c2cc(=O)c3ccccc3o2)n1)c1cc(=O)c2ccccc2o1	> 100 µM (inactive)	42.2 µM (inactive)	4.06 µM	90.8 µM (inactive)	17.3 µM (inactive)	5.46 µM (inactive)	68.4 µM (inactive)	> 100 µM (inactive)	> 100 µM (inactive)	23.3 µM (inactive)	20.8 µM (inactive)	62.4 µM (inactive)		> 100 µM (inactive)	> 100 µM (inactive)	15 µM (inactive)	44.6 µM (inactive)			
CC(C)(C)OC(=O)N1N=NC2C1C1CC(OCc3ccccc3)(OCc3ccccc3)C2O1 (configuration not stated)	40.8 µM (inactive)	11.2 µM (inactive)	31.3 µM	> 100 µM (inactive)	33.5 µM (inactive)	20.2 µM (inactive)	> 100 µM (inactive)	65.8 µM (inactive)	> 100 µM (inactive)	14.1 µM (inactive)	27.9 µM (inactive)	29 µM (inactive)			> 100 µM (inactive)		32.5 µM (inactive)			
CC12CC[C@@H](C(C)(C)O)C1[C@@H](O)CC1(C)C2CCC2[C@@]3(C)CC[C@H](O)C(C)(C)C3C(O)C[C@]21C (some centres not stated)	12.1 µM (inactive)	11.3 µM (inactive)	11.5 µM		17.4 µM (inactive)	11.8 µM (inactive)	10 µM (inactive)	13.8 µM (inactive)	17.5 µM (inactive)	21.3 µM (inactive)	6.85 µM (inactive)	16.8 µM (inactive)		16.4 µM (inactive)			13.1 µM (inactive)			
CC(=O)O[C@H]1CCN2C(=O)C=CC(OCc3ccccc3)C12 (some centres not stated)	> 100 µM (inactive)	> 100 µM (inactive)	> 100 µM	> 100 µM (inactive)	> 100 µM (inactive)	> 100 µM (inactive)	> 100 µM (inactive)	> 100 µM (inactive)	> 100 µM (inactive)	> 100 µM (inactive)		> 100 µM (inactive)		> 100 µM (inactive)	> 100 µM (inactive)		> 100 µM (inactive)			
CCOC(=O)CC1NC(=O)CS1 (configuration not stated)	45.8 µM (inactive)	> 100 µM (inactive)	20 µM	> 100 µM (inactive)	> 100 µM (inactive)	80.4 µM (inactive)	> 100 µM (inactive)	> 100 µM (inactive)	> 100 µM (inactive)	26.8 µM (inactive)		> 100 µM (inactive)		> 100 µM (inactive)	> 100 µM (inactive)		> 100 µM (inactive)			
CC(C)(CN1CCCCC1)C(=O)/C=C/c1ccccc1	13.6 µM (inactive)	5.93 µM (inactive)	13.1 µM	24.7 µM (inactive)		3.4 µM (inactive)	10.3 µM (inactive)	14.6 µM (inactive)	19.9 µM (inactive)	14.7 µM (inactive)	11.9 µM (inactive)	15.6 µM (inactive)		16.3 µM (inactive)	17.3 µM (inactive)	13.2 µM (inactive)	26 µM (inactive)			
O=C(c1ccccc1)C(c1ccccc1)C1(O)C(=O)Nc2ccccc21 (configuration not stated)	> 100 µM (inactive)	> 100 µM (inactive)	> 100 µM	> 100 µM (inactive)	> 100 µM (inactive)	> 100 µM (inactive)	> 100 µM (inactive)	> 100 µM (inactive)	> 100 µM (inactive)	> 100 µM (inactive)	> 100 µM (inactive)	> 100 µM (inactive)		> 100 µM (inactive)	> 100 µM (inactive)	> 100 µM (inactive)	> 100 µM (inactive)			
O=C(O)c1cc(-c2ccccc2O)nc2ccccc12	> 100 µM (inactive)	> 100 µM (inactive)	> 100 µM	> 100 µM (inactive)		> 100 µM (inactive)	> 100 µM (inactive)	> 100 µM (inactive)	> 100 µM (inactive)	> 100 µM (inactive)		> 100 µM (inactive)		> 100 µM (inactive)	> 100 µM (inactive)	> 100 µM (inactive)	> 100 µM (inactive)			
COC(=O)c1cc(=O)n(-c2ccc3nn(C)nc3c2)cc1C(=O)OC	> 100 µM (inactive)	> 100 µM (inactive)	> 100 µM	> 100 µM (inactive)	> 100 µM (inactive)	> 100 µM (inactive)		> 100 µM (inactive)	> 100 µM (inactive)	> 100 µM (inactive)	> 100 µM (inactive)	> 100 µM (inactive)	> 100 µM (inactive)	> 100 µM (inactive)	> 100 µM (inactive)	> 100 µM (inactive)	> 100 µM (inactive)	> 100 µM (inactive)	> 100 µM (inactive)	> 100 µM (inactive)
Cc1nnc2n1N=C(c1ccc(-c3ccc([N+](=O)[O-])cc3)o1)CS2	> 100 µM (inactive)		> 100 µM	> 100 µM (inactive)	> 100 µM (inactive)	> 100 µM (inactive)	> 100 µM (inactive)	> 100 µM (inactive)	> 100 µM (inactive)	> 100 µM (inactive)		> 100 µM (inactive)	> 100 µM (inactive)	> 100 µM (inactive)	> 100 µM (inactive)	> 100 µM (inactive)	> 100 µM (inactive)			
